Assay results: patent publication EP0686635A1, “Pyridylthiazolidinecarboxylic acid amide derivatives, their preparation and their therapeutic uses” (Sankyo Company Limited, priority 1991, dated 1993)
Values after ≈ are worked out from the molar mass of the structure shown. Where two headings read alike, the source gives them in different places.

Key:
[1] = system: passive cutaneous anaphylaxis (PCA) in rats; test: Inhibitory effect on passive cutaneous anaphylaxis (PCA) in rats; format: in vivo; details: dose 6.4 mg/kg p.o., 60 minutes before antigen challenge, exuded Evans Blue vs control group
Protocol: According to Mota's method [I. Mota, Immunology, 7, 681 - 699 (1964)], antiserum (256 times the PCA titer) of rat against egg albumin was prepared and diluted four times with physiological saline. Male SD rats (5 weeks old) were used as the test animals in groups, each containing 4 animals. The rats were sensitized by intradermal injection of 0.05 ml of the diluted antiserum solution in the dorsal position. 48 hours after this injection, a suspension of the test compound in an aqueous 0.5% w/v tragacanth solution was orally administered to the rats, which had been fasted for one day, and 60 minutes later they were injected in the caudal vein with 5 ml/kg body weight of physiological saline containing 0.4% w/v egg albumin and 1.0% w/v Evans Blue. 30 minutes after this last injection, the rats were sacrificed with carbon dioxide and the Evans Blue exuded in the dorsal intradermal portion was determined according to Harada's method (Harada et al., J. Pharm. Pharmac., 23, 218 - 219 (1971)].
The results achieved from the test groups which were treated with a test compound were evaluated to determine the inhibitory rate by comparison with the average amount of exuded dye in a control group, which was not given the test compound.
The inhibitory rate was calculated by the following equation. Inhibitory rate (%) = (1-B/A) x 100 [formula] A: amount of exuded dye in the control group B: amount of exuded dye in the test group.

[2] = system: PAF-induced blood platelet aggregation; test: Inhibitory effect in vitro against PAF-induced blood platelet aggregation; format: cell-based; details: Oryctolagus cuniculus; rabbit platelet rich plasma, stimulated with ℓ-C16:0 PAF (10⁻⁸ ∼ 3 x 10⁻⁸ M), 37°C; read-out: Platelet aggregation inhibition, IC₅₀
Protocol: Blood samples were obtained by cardiac puncture from a rabbit and one part by volume of each sample was immediately mixed with 0.1 part of a 3.8% w/v aqueous solution of sodium citrate. A platelet rich plasma (PRP) fraction was prepared by centrifuging the samples at 150 x G for 15 minutes at room temperature, and a platelet poor plasma (PPP) fraction was then prepared by further centrifugation at 1,000 x G for 15 minutes. The platelet count in the PRP was adjusted to 6 x 10⁵ per µℓ by the addition of an appropriate amount of the PPP fraction. According to the method reported by Born et al. [G.V.R. Born et al.: J. Physiol. 62, 67 - 68 (1962)], blood platelet aggregation was determined turbidimetrically in a 6-channel aggregometer (Hemetracer, NKB, Tokyo, Japan). Aliquots of the PRP (272 µℓ) were preincubated with 3 µℓ of a solution of the test compound in dimethyl sulphoxide for 1 minute, and then stimulated with ℓ-C16:0 PAF (at a final concentration of 10⁻⁸ ∼ 3 x 10⁻⁸ M) at 37°C with stirring (100 rpm). Changes in light transmission were monitored for 5 minutes. Vehicle (dimethyl sulphoxide) controls were tested simultaneously, and the inhibitory effects of the test compounds were assessed on the maximal aggregation. The IC₅₀ values were calculated by the method of least squares.

PAF-receptor = target: T1, PAF-receptor (Oryctolagus cuniculus, UniProt G1TEI7); test: Inhibitory effect on PAF-receptor binding; design: species or system rabbit
T1 construct: a precipitated blood platelet sample was obtained; from tissue; host or cells: rabbit blood platelets, membrane fraction from the 0.25 M / 1.5 M sucrose interface
Description: Blood samples were drawn from the heart of a rabbit. 1 part by volume of each sample was mixed immediately with 1/9 part of a 0.077 M solution of disodium ethylenediaminetetraacetate. After a similar procedure to that described in Experiment 2, a precipitated blood platelet sample was obtained. This blood platelet sample was washed, and, after repeated freesing and thawing to rupture the cells, it was placed on top of two layers consisting of 0.25 M and 1.5 M sucrose solutions. By centrifugation at 63,500 x G, for 2 hours at 4°C, the fraction obtained from the interface between the 0.25 M and 1.5 M sucrose solutions was collected and is regarded as a PAF-receptor membrane fraction. A receptor binding experiment was then conducted according to a method very similar to that reported by Hwang et al. [San-Bao Hwang et al.: J. Biol. Chem. 260, 15639 - 15645 (1985)]. The specific binding of ³H-PAF was measured using a Wattman GF/C filter. A test compound was dissolved in dimethyl sulphoxide and diluted 100 fold with a buffer solution containing 0.5% bovine serum albumin. Nine parts by volume of the solution, for a receptor binding experiment, was mixed with one part of the test compound solution prepared above. The percent inhibition of the specific binding was plotted against the log of the concentration of the test compound, and the 50% inhibitory concentration (IC₅₀) was calculated from the linear line connecting all the plotted points.

[3] = system: intracutaneous reaction in rats by PAF; test: Inhibitory effect on intracutaneous reaction in rats by PAF; format: in vivo; details: dose 6.4 mg/kg p.o., 60 minutes before intradermal PAF, leaked Evans blue vs control group
Protocol: Male SD rats (5 weeks old) were used as the test animals in groups, each containing 4 animals. Each rat was administered orally with a suspension of the test compound in a 0.5% w/v aqueous tragacanth solution. Sixty minutes after the administration, aqueous physiological saline containing 1.0% w/v Evans blue was injected into the tail vein in an amount of 5 ml/kg of the body weight. Immediately after the injection, 0.05 ml of a solution containing 2 µg/ml of PAF was intradermally injected into the back of the rat to induce a cutanous reaction. After 30 minutes, the rats were sacrificed using carbon dioxide, and the quantity of Evans blue which had leaked into the skin of the back was determined by the method of Harada et al. [J. Pharm. Pharmac., 23, 218 - 219 (1971)]. The inhibition rate of the compound was calculated by comparing the average amount of colourant which had leaked in the group treated with the test compound with that of control group to which no test compound was administered.
The inhibition rate was calculated according to the following equation: Inhibition rate (%) = (1 - B/A) x 100 [formula] where: A: Amount of colourant leaked in the control group B: Amount of colourant leaked in the group to which the test compound was administered.

[4] = rabbit platelet PAF-receptor membrane fraction, specific binding of ³H-PAF, read-out: Receptor binding inhibition, IC₅₀ (g/ml) (converted)

T1 sequence (G1TEI7 1-342): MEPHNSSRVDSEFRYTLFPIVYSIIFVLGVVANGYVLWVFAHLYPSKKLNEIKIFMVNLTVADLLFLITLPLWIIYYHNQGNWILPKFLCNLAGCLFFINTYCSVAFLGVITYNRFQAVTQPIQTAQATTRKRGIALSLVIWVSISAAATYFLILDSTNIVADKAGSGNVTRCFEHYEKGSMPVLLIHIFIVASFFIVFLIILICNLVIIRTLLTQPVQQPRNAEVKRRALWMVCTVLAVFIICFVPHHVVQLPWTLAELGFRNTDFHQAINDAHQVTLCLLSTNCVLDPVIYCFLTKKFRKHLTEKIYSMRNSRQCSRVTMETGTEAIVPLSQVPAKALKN

Row | Structure (SMILES) | Inhibitory rate (%) [1] | IC50 [2] | IC50 (PAF-receptor; [4]) | Inhibitory rate (%) [3] | IC50 (PAF-receptor)
1 | O=C(NCCN1CCN2c3ccccc3Cc3ccccc3[C@H]2C1)[C@@H]1CSC(c2cccnc2)N1 (stereo partly drawn) [Example 17, (4R)-N-{2-[(14bS)-1,2,3,4,10,14b-Hexahydrodibenzo[c,f]pyrazino[1,2-a]azepin-2-yl]ethyl}-2-(3-pyridyl)thiazolidine-4-carboxamide] | 73% |  |  |  | 
2 | O=C([C@@H]1CSC(c2cccnc2)N1)N1CCN(CCN2CCC(=C(c3ccccc3)c3ccccc3)CC2)CC1 (stereo partly drawn) [Example 5, (4R)-1-{2-[4-(Diphenylmethylene)-1-piperidinyl]ethyl}-4-[2-(3-pyridyl)thiazolidin-4-ylcarbonyl]piperazine] | 42% |  |  |  | 
3 | O=C([C@@H]1CSC(c2cccnc2)N1)N1CCN(CCOC(c2ccccc2)C2CCCCC2)CC1 (stereo partly drawn) [Example 11, (4R)-1-[2-(α-Cyclohexylbenzyloxy)ethyl]-4-[2-(3-pyridyl)thiazolidin-4-ylcarbonyl]piperazine] |  | 0.072 µg/mL (≈ 0.146 µM) | 445 nM |  | 
4 | O=C(NCCN1CCN2c3ccccc3Cc3ccccc3[C@@H]2C1)[C@@H]1CSC(c2cccnc2)N1 (stereo partly drawn) [Example 16, (4R)-N-{2-[(14bR)-1,2,3,4,10,14b-Hexahydrodibenzo[c,f]pyrazino[1,2-a]azepin-2-yl]ethyl}-2-(3-pyridyl)thiazolidine-4-carboxamide] | 62% |  |  | 62% | 
5 | O=C([C@@H]1CSC(c2cccnc2)N1)N1CCN(CCOC(c2ccc(F)cc2)c2ccc(F)cc2)CC1 (stereo partly drawn) [Example 14, (4R)-1-[2-Bis(4-fluorophenyl)methoxyethyl]-4-[2-(3-pyridyl)thiazolidin-4-ylcarbonyl]piperazine] |  | 0.14 µg/mL (≈ 0.267 µM) |  | 47% | 19.1 nM
6 | O=C([C@@H]1CSC(c2cccnc2)N1)N1CCCN(CCOC(c2ccc(F)cc2)c2ccc(F)cc2)CC1 (stereo partly drawn) [Example 12, (4R)-1-[2-Bis(4-fluorophenyl)methoxyethyl]-4-[2-(3-pyridyl)thiazolidin-4-ylcarbonyl]homopiperazine] |  | 0.19 µg/mL (≈ 0.353 µM) |  |  | 390 nM
7 | O=C([C@@H]1CSC(c2cccnc2)N1)N1CCCN(CCOC(c2ccccc2)c2ccccc2)CC1 (stereo partly drawn) [Example 13, (4R)-1-(2-Diphenylmethoxyethyl)-4-[2-(3-pyridyl)thiazolidin-4-ylcarbonyl]homopiperazine] |  | 0.22 µg/mL (≈ 0.438 µM) |  |  | 279 nM
8 | O=C([C@@H]1CSC(c2cccnc2)N1)N1CCN(CCOC(c2ccccc2)c2ccc(Cl)cc2)CC1 (some centres unmarked) [Example 4] |  | 0.085 µg/mL (≈ 0.162 µM) | 51.6 nM | 64% | 
9 | O=C([C@@H]1CSC(c2cccnc2)N1)N1CCN(CCOC(c2ccccc2)c2ccccc2)CC1 (stereo partly drawn) [Example 7, (4R)-1-(2-Diphenylmethoxyethyl)-4-[2-(3-pyridyl)thiazolidin-4-ylcarbonyl]piperazine] |  | 0.095 µg/mL (≈ 0.194 µM) |  | 70% | 51.2 nM
10 | CN(CCOC(c1ccccc1)c1ccccc1)CCN(C)C(=O)[C@@H]1CSC(c2cccnc2)N1 (stereo partly drawn) [Example 1, (4R)-N-Methyl-N-{2-[N-(2-diphenylmethoxyethyl)-N-methylamino]ethyl}-2-(3-pyridyl)thiazolidine-4-carboxamide] | 33% | 0.063 µg/mL (≈ 0.128 µM) |  | 57% | 
11 | Cc1ccc(C(OCCN2CCN(C(=O)[C@@H]3CSC(c4cccnc4)N3)CC2)c2ccccc2)cc1 (some centres unmarked) [Example 6] | 45% | 0.055 µg/mL (≈ 0.109 µM) | 41.8 nM |  | 
12 | O=C(NCCN1CCN2c3ccc(F)cc3Cc3ccccc3[C@H]2C1)[C@@H]1CSC(c2cccnc2)N1 (stereo partly drawn) [Example 25, (4R)-N-{2-[(14bS)-8-Fluoro-1,2,3,4,10,14b-hexahydrodibenzo[c,f]pyrazino[1,2-a]azepin-2-yl]ethyl}-2-(3-pyridyl)thiazolidine-4-carboxamide] | 55% |  |  |  | 
